What was measured:
[1] = system: LPS-induced TNFα secretion in monocyte-derived macrophages (MdM); assay: MdM assay: LPS-triggered TNFα (ELISA); assay type: cell-based, human; conditions: Homo sapiens, Macrophage, LPS-triggered TNFα inhibition
Procedure: This assay evaluates illustrative compounds of the invention for their inhibition of LPS-induced TNFα and LPS triggered IL-10 secretion in monocyte-derived macrophages.
PBMCs are isolated from human blood samples (buffycoats). The buffy coat is aseptically transferred into a 50 mL Falcon tube, and diluted 1/2 in PBS. Falcon tubes are filled with 20 mL Lymphoprep™, on top of which 25 mL of the buffy coat is carefully added, tubes are centrifuged for 35 min at 400 g in temperature controlled centrifuge, without brake, at 25° C. PBMCs are aspirated from the white interface layer between sample and Lymphoprep™. PBMCs are washed five times in PBS.
PBMCs are centrifuged at 300×g for 10 min and resuspended at a density of 1.0E07 cells/80 μL Miltenyi buffer (PBS, pH 7.4, 1% FBS, 2 mM EDTA).
Starting from this point of the protocol all steps are performed on ice. 20 μL of CD14+ micro-beads are added per 1.0E07 cells, the tube is mixed and incubated for 15 min in the fridge at 4° C. Cell suspension volume is adjusted to total volume of 100 mL using Miltenyi buffer, mixed gently and subsequently centrifuged for 10 min at 300× g. Supernantant is discarded and cell pellet is resuspended in 12 mL of Miltenyi buffer.
Four LS columns are placed in the MACS Separator (magnet) from Miltenyi Biotec, and are prewet by rinsing with 3 mL of MACS buffer per column. Three mL of cell suspension is added onto the column (max 1*10^8 of labelled cells/column), and columns are subsequently washed 3 times with 3 mL of Miltenyi buffer.
The columns are removed from the magnets, and 5 mL of Miltenyi buffer are added to the column to flush out the CD14+ fraction by pushing the plunger into the column. The flushed fractions are collected in a fresh 50 mL Falcon and volume is adjusted to 30 mL using Miltenyi buffer, cells are centrifuged for 10 min at 300× g. The obtained cell pellet is resuspended in 10 mL RPMI w/o FBS, and cell density is determined using a hematologic analyser (Sysmex XS-500i).
On day 10, MdMs are triggered and compound is added.
A compound dilution plate is made in 100% DMSO by 3-fold dilution of 10 mM stock solution. An intermediate dilution plate (10× final concentration) is made by diluting the compound dilution plate 50-fold in RPMI medium.
Medium is carefully removed from cell plates using multichannel pipette, and replaced by 80 μL fresh medium. 10 μL of the 10× final concentration compound is added to the cells and incubated for 1 hour at 37° C. before addition of trigger. No trigger conditions/trigger conditions are spiked with equal final DMSO concentrations of 0.2% DMSO. 10 μL of 10×LPS (final conc. 200 ng/mL) solution are added to all wells except for the ‘no trigger wells’ where 10 μL medium is added. Supernatant is collected after 2 h (IL-10 determination) and after 20 h (TNFα determination) of LPS triggering.
The plate is then washed once with PBST (PBS+0.05% Tween20) and once with PBS followed by the addition of 100 μL of blocking buffer (1% Bovine Serum Albumin (BSA)-5% Sucrose) and plates are sealed and incubated for at least 4 h at RT. After washing the plate once with PBST and once with PBS, 40 μL of standard or sample are added (TNFα standard curve is prepared using a 1/2 serial dilution starting from 16000 pg/mL; dilutions are made in dilution buffer (PBS+1% BSA)). Plates are washed twice with PBST, and once with PBS, after which 35 μL of the detection antibody is added (final concentration 0.25 μg/mL diluted in dilution buffer) and plates are incubated for at least 2 h at RT. Plates are washed twice with PBST, and once with PBS, where after 35 μL of Strep-HRP conjugate (0.5 μg/mL final concentration diluted in dilution buffer) is added. Plates are incubated in the dark, at RT for at least 45 min but no longer than 1 hour. Plates are washed twice with PBST, and once with PBS.

[2] = target: T1, SIK2 (Homo sapiens, UniProt Q9H0K1); assay: biochemical; conditions: 33P radioactive SIK kinase assay, AMARA peptide, 10 μM ATP
T1 construct: purchased ThermoFisher Scientific PV4792
How it was run: (§1)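 Read-out: ^33P incorporated into AMARA peptide, counted on filter plates, taken as kinase activity. Reactions start on addition of labeled/unlabeled ATP to enzyme plus substrate and end with phosphoric acid. Controls: 1% DMSO (negative) and 10 μM staurosporine (positive), final.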

[3] = target: T2, SIK3 (Homo sapiens, UniProt Q9Y2K2); assay: biochemical
T2 construct: purchased SignalChem S12-11G-100
How it was run: as §1

[4] = target: T3, SIK1 (Homo sapiens, UniProt P57059); assay: biochemical; conditions: 33P radioactive SIK kinase assay, AMARA peptide, 10 μM ATP; read-out: SIK1 IC50
T3 construct: purchased Carna Biosciences 02-131
How it was run: as §1

T3 sequence (P57059 whole entry): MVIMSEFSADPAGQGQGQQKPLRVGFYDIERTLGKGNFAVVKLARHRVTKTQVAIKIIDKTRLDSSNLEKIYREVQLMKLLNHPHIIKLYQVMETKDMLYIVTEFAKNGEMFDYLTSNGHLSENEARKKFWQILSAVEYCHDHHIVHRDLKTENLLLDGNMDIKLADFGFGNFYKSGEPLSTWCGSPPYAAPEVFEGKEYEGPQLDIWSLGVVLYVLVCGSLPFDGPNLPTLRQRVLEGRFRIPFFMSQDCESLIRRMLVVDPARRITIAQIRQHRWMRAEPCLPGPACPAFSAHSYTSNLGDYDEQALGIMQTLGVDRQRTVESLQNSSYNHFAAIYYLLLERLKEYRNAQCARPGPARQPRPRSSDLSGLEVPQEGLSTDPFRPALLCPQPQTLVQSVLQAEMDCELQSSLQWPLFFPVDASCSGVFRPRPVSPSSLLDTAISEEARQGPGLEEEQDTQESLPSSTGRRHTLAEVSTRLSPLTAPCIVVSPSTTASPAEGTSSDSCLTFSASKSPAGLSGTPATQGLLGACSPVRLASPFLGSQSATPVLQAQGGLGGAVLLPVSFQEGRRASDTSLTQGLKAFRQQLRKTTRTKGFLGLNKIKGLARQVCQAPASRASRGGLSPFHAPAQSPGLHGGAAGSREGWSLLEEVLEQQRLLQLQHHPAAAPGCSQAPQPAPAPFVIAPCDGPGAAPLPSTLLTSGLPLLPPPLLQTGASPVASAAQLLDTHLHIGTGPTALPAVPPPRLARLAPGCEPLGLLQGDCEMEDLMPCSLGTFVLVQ
T1 sequence (Q9H0K1 whole entry): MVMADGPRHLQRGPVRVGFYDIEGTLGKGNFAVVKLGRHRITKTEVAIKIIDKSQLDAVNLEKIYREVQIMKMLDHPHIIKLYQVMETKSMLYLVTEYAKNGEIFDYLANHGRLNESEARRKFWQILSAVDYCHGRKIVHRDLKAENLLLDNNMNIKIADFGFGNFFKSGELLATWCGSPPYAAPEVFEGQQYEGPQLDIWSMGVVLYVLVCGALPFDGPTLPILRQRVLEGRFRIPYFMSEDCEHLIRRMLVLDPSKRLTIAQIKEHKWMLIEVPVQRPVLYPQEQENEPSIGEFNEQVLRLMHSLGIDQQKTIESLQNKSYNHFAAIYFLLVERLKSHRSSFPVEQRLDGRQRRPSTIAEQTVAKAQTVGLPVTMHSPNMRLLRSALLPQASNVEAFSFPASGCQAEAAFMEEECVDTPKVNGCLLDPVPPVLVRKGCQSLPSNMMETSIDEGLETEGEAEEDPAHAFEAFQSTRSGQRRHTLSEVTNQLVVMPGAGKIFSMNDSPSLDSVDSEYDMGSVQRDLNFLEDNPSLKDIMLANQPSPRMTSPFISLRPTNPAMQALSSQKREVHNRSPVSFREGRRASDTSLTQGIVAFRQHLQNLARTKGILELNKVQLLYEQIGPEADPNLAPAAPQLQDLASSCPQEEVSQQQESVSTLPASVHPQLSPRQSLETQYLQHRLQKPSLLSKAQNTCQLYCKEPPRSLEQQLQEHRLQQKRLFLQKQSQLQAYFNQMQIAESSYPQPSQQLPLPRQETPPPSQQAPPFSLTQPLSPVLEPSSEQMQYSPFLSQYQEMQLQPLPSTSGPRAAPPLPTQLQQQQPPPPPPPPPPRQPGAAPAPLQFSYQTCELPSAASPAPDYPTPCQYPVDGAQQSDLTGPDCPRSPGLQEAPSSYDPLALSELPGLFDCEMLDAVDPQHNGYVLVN
T2 sequence (Q9Y2K2 whole entry): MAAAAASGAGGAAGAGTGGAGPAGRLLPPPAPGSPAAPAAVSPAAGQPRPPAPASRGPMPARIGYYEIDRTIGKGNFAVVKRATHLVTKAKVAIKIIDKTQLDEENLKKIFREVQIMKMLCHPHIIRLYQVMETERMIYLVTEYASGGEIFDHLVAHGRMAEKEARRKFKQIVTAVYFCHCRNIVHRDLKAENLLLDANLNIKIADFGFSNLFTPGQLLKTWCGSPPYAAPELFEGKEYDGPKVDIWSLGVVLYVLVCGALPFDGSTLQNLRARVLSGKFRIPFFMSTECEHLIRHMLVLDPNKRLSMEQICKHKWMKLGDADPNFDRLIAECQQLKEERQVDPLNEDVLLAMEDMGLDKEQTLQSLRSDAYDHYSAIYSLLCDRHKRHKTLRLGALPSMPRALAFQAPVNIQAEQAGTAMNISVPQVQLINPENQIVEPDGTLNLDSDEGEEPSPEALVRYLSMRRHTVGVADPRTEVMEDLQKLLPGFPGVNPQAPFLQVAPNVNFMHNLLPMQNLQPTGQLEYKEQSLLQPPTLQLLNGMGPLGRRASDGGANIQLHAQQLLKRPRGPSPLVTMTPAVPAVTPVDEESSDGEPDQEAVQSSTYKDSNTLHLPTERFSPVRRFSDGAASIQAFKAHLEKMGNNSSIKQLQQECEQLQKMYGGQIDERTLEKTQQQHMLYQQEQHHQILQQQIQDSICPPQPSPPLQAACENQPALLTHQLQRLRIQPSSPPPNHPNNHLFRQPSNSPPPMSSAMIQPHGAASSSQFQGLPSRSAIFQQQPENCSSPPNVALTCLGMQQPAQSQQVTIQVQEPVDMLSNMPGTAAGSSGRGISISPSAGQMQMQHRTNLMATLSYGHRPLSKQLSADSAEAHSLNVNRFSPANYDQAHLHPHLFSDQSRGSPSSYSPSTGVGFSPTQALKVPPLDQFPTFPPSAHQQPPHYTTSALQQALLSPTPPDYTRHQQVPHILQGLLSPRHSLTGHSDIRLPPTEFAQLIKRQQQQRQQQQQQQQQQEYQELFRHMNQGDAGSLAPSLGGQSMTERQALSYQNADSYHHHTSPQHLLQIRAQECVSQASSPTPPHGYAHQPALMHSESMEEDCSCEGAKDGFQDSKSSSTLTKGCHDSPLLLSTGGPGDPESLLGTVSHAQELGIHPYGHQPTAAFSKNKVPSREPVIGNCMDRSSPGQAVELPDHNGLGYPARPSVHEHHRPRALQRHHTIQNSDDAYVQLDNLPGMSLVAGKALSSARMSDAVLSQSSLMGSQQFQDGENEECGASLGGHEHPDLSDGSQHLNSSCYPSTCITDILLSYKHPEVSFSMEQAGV

| SMILES | EC50 [1] | IC50 [2] | IC50 [3] | IC50 [4] |
| --- | --- | --- | --- | --- |
| COc1cc(-n2cnc3cc(-c4cnc(C)[nH]4)ccc32)cc(OC)c1C(=O)NCC(F)(F)F [compound 152, 2,6-dimethoxy-4-[5-(2-methyl-1H-imidazol-5-yl)benzimidazol-1-yl]-N(2,2,2-trifluoroethyl)benzamide] | 1000 to 5000 nM | 10 to 100 nM | 10 to 100 nM | 10 to 100 nM |
| COc1cc(-c2cnc3cc(-c4cnn(C(C)C(=O)OC(C)(C)C)c4)ccn23)cc(OC)c1C(=O)NCC(F)(F)F (stereo not shown) [compound 243, tert-butyl 2-[4-[3-[3,5-dimethoxy-4-(2,2,2-trifluoroethyl-carbamoyl)phenyl]imidazol[1,2-a]pyridin-7-yl]pyrazol-1-yl]propanoate] | 0.1 to 100 nM | 0.01 to 10 nM | 0.01 to 10 nM | 0.01 to 10 nM |
| COc1cc(-c2cnc3cc(-c4cnn(C)c4)ccn23)cc(OC)c1C(=O)N1CCC(C#N)C1 (stereo not shown) [compound 210, 1-[2,6-dimethoxy-4-[7-(1-methylpyrazol-4-yl)imidazo[1,2-a]pyridin-3-yl]benzoyl]pyrrolidine-3-carbonitrile] | 100 to 1000 nM | 10 to 100 nM | 0.01 to 10 nM | 10 to 100 nM |
| COc1cc(-n2cnc3cc(-c4cnn(CC#N)c4)ccc32)cc(OC(F)F)c1C(=O)NC1CC1 [Cpd 55, 4-[5-[1-(cyanomethyl)pyrazol-4-yl]benzimidazol-1-yl]-N-cyclopropyl-2-(difluoromethoxy)-6-methoxy-benzamide] | 0.1 to 100 nM | 0.01 to 10 nM | 0.01 to 10 nM | 0.01 to 10 nM |
| CCn1cc(-c2cnc3c(-c4cc(OC)c(C(=O)NCC(F)F)c(OC)c4)cnn3c2)cn1 [compound 21, N-(2,2-difluoroethyl)-4-[6-(1-ethylpyrazol-4-yl)pyrazolo[1,5-a]pyrimidin-3-yl]-2,6-dimethoxy-benzamide] | 100 to 1000 nM | 0.01 to 10 nM | 0.01 to 10 nM | 10 to 100 nM |
| COc1cc(-c2cnc3cc(-c4cnn(C(C)C(=O)O)c4)ccn23)cc(OC)c1C(=O)NCC(F)(F)F (stereo not shown) [Cpd 254, 2-[4-[3-[3,5-dimethoxy-4-(2,2,2-trifluoroethyl-carbamoyl)phenyl]imidazo[1,2-a]pyridin-7-yl]pyrazol-1-yl]propanoic acid] | > 5000 nM | 0.01 to 10 nM | 0.01 to 10 nM | 0.01 to 10 nM |
| COc1cc(-c2cnc3cc(-c4cnn(CC(=O)OC(C)(C)C)c4)ccn23)cc(OC)c1C(=O)NCC(F)(F)F [Cpd 229, tert-butyl 2-[4-[3-[3,5-dimethoxy-4-(2,2,2-trifluoroethyl-carbamoyl)phenyl]imidazo[1,2-a]pyridin-7-yl]pyrazol-1-yl]acetate] | 100 to 1000 nM | 0.01 to 10 nM | 0.01 to 10 nM | 0.01 to 10 nM |
| COc1cc(-n2cnc3cc(-c4nnc(C)[nH]4)ccc32)cc(OC)c1C(=O)NCC(F)(F)F [Cpd 127, 2,6-dimethoxy-4-[5-(5-methyl-4H-1,2,4-triazol-3-yl)benzimidazol-1-yl]-N-(2,2,2-trifluoroethyl)benzamide] | > 5000 nM | 100 to 500 nM | 100 to 500 nM | > 500 nM |
| COc1cc(-n2cnc3cc(-c4cnn(C)c4)ccc32)cc(OC)c1C(=O)N[C@@H]1C[C@H]1C(F)F [compound 157] | 100 to 1000 nM | 10 to 100 nM | 10 to 100 nM | 10 to 100 nM |
| COc1cc(-c2cnc3cc(-c4cnn(C)c4)ccn23)cc(OC)c1C(=O)NC(C)C [compound 171, N-isopropyl-2,6-dimethoxy-4-[7-(1-methylpyrazol-4-yl)imidazo[1,2-a]pyridin-3-yl]benzamide] | 0.1 to 100 nM | 10 to 100 nM | 10 to 100 nM | 10 to 100 nM |
| COc1cc(-n2cnc3cc(-c4cnn(C5CCNCC5)c4)ccc32)cc(OC)c1C(=O)NCC(F)(F)F [compound 42, 2,6-dimethoxy-4-[5-[1-(4-piperidyl)pyrazol-4-yl]benzimidazol-1-yl]-N-(2,2,2-trifluoroethyl)benzamide] | 100 to 1000 nM | 0.01 to 10 nM | 0.01 to 10 nM | 0.01 to 10 nM |
| COc1cc(-n2cnc3cc(-c4cnn(C)c4)ccc32)cc(OC)c1C(=O)N[C@@H]1CC[C@H]1O [compound 159, N-[(1R,2R)-2-hydroxycyclobutyl]-2,6-dimethoxy-4-[5-(1-methylpyrazol-4-yl)benzimidazol-1-yl]benzamide] | 100 to 1000 nM | 10 to 100 nM | 10 to 100 nM | 10 to 100 nM |
| COc1cc(-c2cnc3cc(-c4ccc(N5CCOCC5)nc4)ccn23)cc(OC)c1C(=O)NCC(F)(F)F [compound 251, 2,6-dimethoxy-4-[7-(6-morpholino-3-pyridyl)imidazo[1,2-a]pyridin-3-yl]-N-(2,2,2-trifluoroethyl)benzamide] | 0.1 to 100 nM | 0.01 to 10 nM | 0.01 to 10 nM | 0.01 to 10 nM |
| COc1cc(-n2cnc3cc(-c4cnn(C)c4)ccc32)cc(OC)c1C(=O)N[C@H](C)C(F)(F)F [compound 58, 2,6-dimethoxy-4-[5-(1-methylpyrazol-4-yl)benzimidazol-1-yl]-N-[(1R)-2,2,2-trifluoro-1-methyl-ethyl]benzamide] | 100 to 1000 nM | 10 to 100 nM | 10 to 100 nM | 10 to 100 nM |
| COc1cc(-n2cnc3cc(-c4cn(C)cn4)ccc32)cc(OC)c1C(=O)NCC(F)(F)F [Cpd 137, 2,6-dimethoxy-4-[5-(1-methylimidazol-4-yl)benzimidazol-1-yl]-N-(2.2,2-trifluoroethyl)benzamide] | 100 to 1000 nM | 0.01 to 10 nM | 10 to 100 nM | 10 to 100 nM |
| COc1cc(-c2cnc3cc(-c4cnn(CC(=O)OC5CCOC5)c4)ccn23)cc(OC)c1C(=O)NCC(F)(F)F (stereo not shown) [Cpd 237, tetrahydrofuran-3-yl 2-[4-[3-[3,5-dimethoxy-4-(2,2,2-trifluoroethyl-carbamoyl)phenyl]imidazo[1,2-a]pyridin-7-yl]pyrazol-1-yl]acetate] | 100 to 1000 nM | 0.01 to 10 nM | 0.01 to 10 nM | 0.01 to 10 nM |
| COc1cc(-n2cnc3cc(-c4noc(C)n4)ccc32)cc(OC)c1C(=O)NCC(F)(F)F [Cpd 126, 2,6-dimethoxy-4-[5-(5-methyl-1,2,4-oxadiazol-3-yl)benzimidazol-1-yl]-N-(2,2,2-trifluoroethyl)benzamide] | 1000 to 5000 nM | > 500 nM | > 500 nM | > 500 nM |
| COc1cc(-c2cnn3cc(-c4cnn(C)c4)cnc23)cc(OC)c1C(=O)NCC(F)(F)F [Cpd 52, 2,6-dimethoxy-4-[6-(1-methylpyrazol-4-yl)pyrazolo[1,5-a]pyrimidin-3-yl]-N-(2,2,2-trifluoroethyl)benzamide] | 100 to 1000 nM | 0.01 to 10 nM | 10 to 100 nM | 10 to 100 nM |
| COc1cc(-c2cnc3cc(-c4cncnc4)ccn23)cc(OC)c1C(=O)NCC(F)(F)F [compound 242, 2,6-dimethoxy-4-(7-pyrimidin-5-ylimidazo[1,2-a]pyridin-3-yl)-N-(2,2,2-trifluoroethyl)benzamide] | 1000 to 5000 nM | 100 to 500 nM | 10 to 100 nM | 100 to 500 nM |

— US12065443B2, “Compounds and pharmaceutical compositions thereof for the treatment of diseases” (priority 2017, dated 2024)
